This note sets out measurements from patent publication US20230183215A1, “Notch Inhibitors and Uses Thereof” (StemSynergy Therapeutics, Inc., priority 2020, published 2023).

pEC50, pIC50: −log10 of the molar value. Structures can show the parent of a compound that is named as a salt.

One assay deals with T1, Notch1 (Homo sapiens, UniProt P46531).
T1 construct: pLV[Tet]-Puro-TRE3G>Notch1-ICD; expressed in transfected cells; host or cells: 293A cells
Kind of assay: Notch1 Reporter Assay (CSL-responsive luciferase, doxycycline-induced Notch-ICD in 293A cells). As to conditions: 25 ng/mL Dox, 24 h, luciferase normalized to cell viability. The format is cell-based. As to the method: 293A cells expressing 1) pCMV-Tet-On 3G, 2) pLV[Tet]-Puro-TRE3G>Notch1-ICD, 3) pLV[Tet]-Puro-TRE3G>Notch2-ICD, 4) pLV[Tet]-Puro-TRE3G>Notch3-ICD, and 5) pCSL-RElement-Luc were used. When Doxycycline is added, the Tet-ON gene activates expression of hNotch1ICD, which together with endogenous NTC components binds to CSL responsive elements (pCSL-RElement-Luc) and expresses luciferase. 1×10^4 cells are plated in 100 μL (96-well format). 24 h later, compounds (10 mM stock in DMSO) are diluted in DMSO to 200×, then added (5 ul into 1 mL) to cell culture media containing 50 ng/mL Dox. This is then added 1:1 to cells. Final DMSO=0.25%, Dox=25 ng/mL. After 24 h, media is discarded, and cells are lysed in passive lysis buffer (Promega). Cells are rocked at room temperature for 15 min and then lysate is divided for luciferase assay (Luciferase Assay System, Promega) and cell viability (CellTiter Glo 2.0, Promega). Raw luciferase is normalized to cell viability, and then scaled to DMSO wells. Results are analyzed and IC50's are determined in GraphPad by nonlinear regression curve fitting (4 parameter) of dose response curves.
(In general: A reporter such as luciferase makes a cellular process visible.)

Assay [1] relates to OE33 Esophageal Adenocarcinoma cell line. As to the kind of experiment: OE33 Colony Formation Assay. The format is cell-based. As to conditions: Homo sapiens, 200 cells/well, compound every 48 hours for 7 days, CellTiter-Glo. The method, then:
OE33 Colony Formation Assay:
The OE33 Esophageal Adenocarcinoma cell line was cultured and plated into 96-well tissue culture plates under sparse conditions (200 cells/well). Test compounds were serially diluted in DMSO and then into culture media (final DMSO concentration=0.1%). Compound/media was then added to cells every 48 hours for a total of 7 days. Clonogenic growth was assessed using the CellTiter-Glo reagent, according to manufacturer (Promega) specifications. Percent inhibition was calculated as the percent of luminescence normalized to control (0.1% DMSO) wells. Nonlinear regression curve fitting was performed using GraphPad Prism software to determine EC50's.

T1 sequence (P46531 1754-2555 limits assumed): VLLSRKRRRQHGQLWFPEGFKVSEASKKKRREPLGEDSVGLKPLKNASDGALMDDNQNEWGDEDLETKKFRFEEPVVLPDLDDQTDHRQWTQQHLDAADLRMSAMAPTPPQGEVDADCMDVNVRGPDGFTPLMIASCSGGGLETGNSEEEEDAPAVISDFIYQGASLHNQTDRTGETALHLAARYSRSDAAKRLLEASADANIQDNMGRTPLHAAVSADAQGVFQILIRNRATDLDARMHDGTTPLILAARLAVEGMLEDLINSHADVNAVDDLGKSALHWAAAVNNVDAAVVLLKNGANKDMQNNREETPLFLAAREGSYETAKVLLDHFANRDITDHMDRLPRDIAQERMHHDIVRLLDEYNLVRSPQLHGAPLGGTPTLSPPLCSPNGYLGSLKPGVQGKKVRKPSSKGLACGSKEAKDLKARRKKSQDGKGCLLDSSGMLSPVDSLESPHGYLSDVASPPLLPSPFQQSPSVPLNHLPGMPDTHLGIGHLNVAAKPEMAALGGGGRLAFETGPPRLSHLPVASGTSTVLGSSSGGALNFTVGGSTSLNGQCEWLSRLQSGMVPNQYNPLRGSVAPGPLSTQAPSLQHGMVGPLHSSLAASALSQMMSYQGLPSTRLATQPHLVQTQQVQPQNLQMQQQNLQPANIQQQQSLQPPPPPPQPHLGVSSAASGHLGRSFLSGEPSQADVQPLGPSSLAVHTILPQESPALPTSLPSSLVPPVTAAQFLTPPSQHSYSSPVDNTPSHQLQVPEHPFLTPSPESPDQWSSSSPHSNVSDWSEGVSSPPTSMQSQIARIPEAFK

Broadly, the pIC50 is the IC50 on a negative log10 scale, so that one unit is a factor of ten. What is called pEC50 is −log10 of the EC50, conventionally taken in molar units. A high value points to a low EC50. In the case of `COc1cc(-c2cc(C(F)(F)F)cc3c2n(C)c(=O)n3CC(=O)Nc2ccc(F)nc2)cc(F)c1OCc1nnc[nH]1` [SSTN-609, 2-(4-(4-((4H-1,2,4-triazol-3-yl)methoxy)-3-fluoro-5-methoxyphenyl)-3-methyl-2-oxo-6-(trifluoromethyl)-2,3-dihydro-1H-benzo[d]imidazol-1-yl)-N-(6-fluoropyridin-3-yl)acetamide], the pIC50 on Notch1 was 4.99. The same compound had a pEC50 in assay [1] of 4.73.

On to `COc1cc(-c2cc(C(F)(F)F)cc3c2n(C)c(=O)n3CC(=O)Nc2ccc(SC)cc2F)cc(F)c1OCc1nnc[nH]1` [SSTN-500, 2-(4-(4-((4H-1,2,4-triazol-3-yl)methoxy)-3-fluoro-5-methoxyphenyl)-3-methyl-2-oxo-6-(trifluoromethyl)-2,3-dihydro-1H-benzo[d]imidazol-1-yl)-N-(2-fluoro-4-(methylthio)phenyl)acetamide hydrochloride], for which, on Notch1, the pIC50 was 5.13. This compound showed a pEC50 in assay [1] of 5.57.

In turn, `COc1cc(-c2cc(C(F)(F)F)cc3c2n(C)c(=O)n3CC(=O)Nc2cccc(C3CC3)c2)cc(F)c1OCc1nnc[nH]1` [SSTN-547, 2-(4-(4-((4H-1,2,4-triazol-3-yl)methoxy)-3-fluoro-5-methoxyphenyl)-3-methyl-2-oxo-6-(trifluoromethyl)-2,3-dihydro-1H-benzo[d]imidazol-1-yl)-N-(3-cyclopropylphenyl)acetamide] showed a pIC50 against Notch1 of 5.23. The pEC50 in assay [1] is 5.77.

Regarding `COc1cc(-c2cc(C(F)(F)F)cc3c2n(C)c(=O)n3CC(=O)N(c2ccc(F)cc2)C(C)C)cc(F)c1OCc1nnc[nH]1` [SSTN-542, 2-(4-(4-((4H-1,2,4-triazol-3-yl)methoxy)-3-fluoro-5-methoxyphenyl)-3-methyl-2-oxo-6-(trifluoromethyl)-2,3-dihydro-1H-benzo[d]imidazol-1-yl)-N-(4-fluorophenyl)-N-isopropylacetamide], the pIC50 at Notch1 is 5.42. Also, the pEC50 in assay [1] was 5.77.

As to `COc1cc(-c2cc(C(F)(F)F)cc3c2n(C)c(=O)n3CC(=O)Nc2ccc(F)cc2F)cc(F)c1OCc1nnc[nH]1` [SSTN-494, 2-(4-(4-((4H-1,2,4-triazol-3-yl)methoxy)-3-fluoro-5-methoxyphenyl)-3-methyl-2-oxo-6-(trifluoromethyl)-2,3-dihydro-1H-benzo[d]imidazol-1-yl)-N-(2,4-difluorophenyl)acetamide hydrochloride], the pIC50 at Notch1 was 4.92. Besides, the pEC50 in assay [1] was 5.15.

`COc1ccccc1NC(=O)Cn1c(=O)n(C)c2c(-c3cc(F)c(OCc4nnc[nH]4)c(OC)c3)cc(C(F)(F)F)cc21` [SSTN-493, 2-(4-(4-((4H-1,2,4-triazol-3-yl)methoxy)-3-fluoro-5-methoxyphenyl)-3-methyl-2-oxo-6-(trifluoromethyl)-2,3-dihydro-1H-benzo[d]imidazol-1-yl)-N-(2-methoxyphenyl)acetamide hydrochloride] had a pIC50 against Notch1 of 5.07. This compound also had a pEC50 in assay [1] of 5.62.

Take `COc1cc(-c2cc(C(F)(F)F)cc3c2n(C)c(=O)n3CC(=O)Nc2ccc(SC)cc2)cc(F)c1OCc1nnc[nH]1` [SSTN-498, 2-(4-(4-((4H-1,2,4-triazol-3-yl)methoxy)-3-fluoro-5-methoxyphenyl)-3-methyl-2-oxo-6-(trifluoromethyl)-2,3-dihydro-1H-benzo[d]imidazol-1-yl)-N-(4-(methylthio)phenyl)acetamide hydrochloride]: the pIC50 against Notch1 was 5.07. For the same compound, the pEC50 in assay [1] is 5.52.

`COc1cc(-c2cc(C(F)(F)F)cc3c2n(C)c(=O)n3CC(=O)Nc2ccc(Cl)cc2)cc(F)c1OCc1nnc[nH]1` [SSTN-489, 2-(4-(4-((4H-1,2,4-triazol-3-yl)methoxy)-3-fluoro-5-methoxyphenyl)-3-methyl-2-oxo-6-(trifluoromethyl)-2,3-dihydro-1H-benzo[d]imidazol-1-yl)-N-(4-chlorophenyl)acetamide hydrochloride]: the pIC50 against Notch1 was 5.10. Also, the pEC50 in assay [1] is 5.68.

In the case of `COc1cc(-c2cc(C(F)(F)F)cc3c2n(C)c(=O)n3CC(=O)Nc2cccc(C(C)(C)C)c2)cc(F)c1OCc1nnc[nH]1` [SSTN-555, 2-(4-(4-((4H-1,2,4-triazol-3-yl)methoxy)-3-fluoro-5-methoxyphenyl)-3-methyl-2-oxo-6-(trifluoromethyl)-2,3-dihydro-1H-benzo[d]imidazol-1-yl)-N-(3-(tert-butyl)phenyl)acetamide], the pIC50 against Notch1 was 5.39. The compound further had a pEC50 in assay [1] of 5.77.

As to `COc1cc(-c2cc(C(F)(F)F)cc3c2n(C)c(=O)n3CC(=O)Nc2ccc(F)cc2)ccc1OCc1nnc[nH]1` [SSTN-598, 2-(4-(4-((4H-1,2,4-triazol-3-yl)methoxy)-3-methoxyphenyl)-3-methyl-2-oxo-6-(trifluoromethyl)-2,3-dihydro-1H-benzo[d]imidazol-1-yl)-N-(4-fluorophenyl)acetamide hydrochloride salt], at Notch1, the pIC50 was 5.19. In assay [1], this compound showed a pEC50 of 4.94.

Compound `COc1cc(-c2cc(C(F)(F)F)cc3c2n(C)c(=O)n3CC(=O)N(C)c2cccc(Cl)c2)cc(F)c1OCc1nnc[nH]1` [compound 448, 2-(4-(4-((4H-1,2,4-triazol-3-yl)methoxy)-3-fluoro-5-methoxyphenyl)-3-methyl-2-oxo-6-(trifluoromethyl)-2,3-dihydro-1H-benzo[d]imidazol-1-yl)-N-(3-chlorophenyl)-N-methylacetamide hydrochloride] gave a pIC50 on Notch1 of 5.62. The pEC50 in assay [1] is 5.68.

As to `COc1cc(-c2cc(C(F)(F)F)cc3c2n(C)c(=O)n3CC(=O)Nc2ccc(F)cc2)cc(F)c1OCc1nnc[nH]1` [compound 465, 2-(4-(4-((4H-1,2,4-triazol-3-yl)methoxy)-3-fluoro-5-methoxyphenyl)-3-methyl-2-oxo-6-(trifluoromethyl)-2,3-dihydro-1H-benzo[d]imidazol-1-yl)-N-(4-fluorophenyl)acetamide hydrochloride], on Notch1, the pIC50 was 5.07. In assay [1], the pEC50 is 5.28.

Consider `COc1cc(-c2cc(OC(F)(F)F)cc3c2n(C)c(=O)n3CC(=O)Nc2ccc(F)cc2)cc(F)c1OCc1nnc[nH]1` [SSTN-600, 2-(4-(4-((4H-1,2,4-triazol-3-yl)methoxy)-3-fluoro-5-methoxyphenyl)-3-methyl-2-oxo-6-(trifluoromethoxy)-2,3-dihydro-1H-benzo[d]imidazol-1-yl)-N-(4-fluorophenyl)acetamide hydrochloride salt], for which the pIC50 against Notch1 was 5.24. In assay [1], this compound had a pEC50 of 5.18.

At Notch1, `COc1cc(-c2cc(Cl)cc3c2n(C)c(=O)n3CC(=O)Nc2ccc(F)cc2)cc(F)c1OCc1nnc[nH]1` [SSTN-601, 2-(4-(4-((4H-1,2,4-triazol-3-yl)methoxy)-3-fluoro-5-methoxyphenyl)-6-chloro-3-methyl-2-oxo-2,3-dihydro-1H-benzo[d]imidazol-1-yl)-N-(4-fluorophenyl)acetamide] had a pIC50 of 4.99. The pEC50 in assay [1] was 5.15.
